# Data: patent US20100204460A1, “NATURAL BRASSINOSTEROIDS FOR USE FOR TREATING HYPERPROLIFERATION, TREATING PROLIFERATIVE DISEASES AND REDUCING ADVERSE EFFECTS OF STEROID DYSFUNCTION IN MAMMALS, PHARMACEUTICAL COMPOSITION AND ITS USE” (priority 2007, published 2010)
# Key:
# Assay type in all cases: cell-based
# DU-145 cells = experiment: Cell cycle distribution by flow cytometry, DU-145; details: IC50, 24 h; for Cell cycle distribution S: control 15%; for Apoptosis subG1 fraction: control 20%; for Cell cycle distribution G2/M: control 23%; for Cell cycle distribution G1: control 62%
# From the text: (§1) In the MCF-7 breast cancer cell line that has been the most widely studied experimental cell system, the typical growth inhibitory response to antiestrogens is decrease in the proportion of cells synthesising DNA (S phase) after antiestrogen treatment. This decrease in S phase coincides with an increase in the proportion of cells in G0/G1 phase. The activity of the androgen receptor (AR) is also regulated by alterations in cell signaling. There has been reported ligand independent activation of AR in prostate cancer cells by different growth factors. As the AR can be activated in the absence of hormone, it appears that the conditions may be more restricted than those observed for ER. Use of physiologic doses of ligand (dihydrotestosterone, DHT) is of importance as the LNCaP cells proliferate only at DHT concentration of 10^−9 M or lower. […] In contrast to proliferation, transactivation of AR specific target genes (e.g. PSA) continues to increase with DHT doses of 10^−10 M and higher. It might be accepted for estrogen or androgen receptors as stronger cytotoxic activities of brassinosteroids 9 or 6 on hormone-sensitive (MCF-7, LNCaP) compared to hormone-insensitive (MDA-MB-468, DU-145) cell lines were found. Therefore we explored the possibility of cell cycle perturbation by BRs in different cancer cell lines. Flow cytometry was used to evaluate the number of cells in the particular phases of the cell cycle, including subG1 peak detection. Control and treated cells were washed twice with cold PBS and centrifuged at 360×g for 10 min at 4° C., and fixed with chilled ethanol (70%; v/v) by low-speeded vortexing. For detection of DNA content analysis, propidium iodide staining was used. The cells were analyzed using a FACSCalibur flow cytometer (BD Biosciences, San Jose, Calif.).
# (§2) Flow-cytometric detection of apoptosis. Several studies have declared that the induction of apoptosis may be cell cycle-dependent. Therefore, in our next series of experiments, we tested if brassinosteroids 9 or 6 cause apoptosis of the breast and prostate cancer cells via cell cycle blockage. From this reason we carried out DNA cell cycle analysis by flow cytometry based on detection of endonucleolytic DNA degradation that results in extraction of low molecular weight DNA from the cells. […] The subG1 peak containing apoptotic bodies was however not observed in MCF-7 cells.
# LNCaP cells = experiment: BrdU incorporation assay, LNCaP
# Description: (§3) To analyze if the inhibition in cell viability was due to decreased cell proliferation, we measured DNA synthesis in the presence of BRs. The effect of brassinosteroids 9 or 6 on cell proliferation and DNA replication of the cancer cells was measured by BrdU incorporation assay. This immunostaining was based on nuclear incorporation of bromodeoxyuridine (BrdU) into DNA in place of thymidine during the S-phase of cell cycle detected by anti-specific-BrdU antibody following membrane permeabilization as described previously (Gratzner, Science. 1982, 218, 474-475). […] The BrdU reagent (0.1 mM; Sigma, MO, USA) was added in culture medium with cells for 4 h in a CO2 incubator at 37° C. After incubation the cells were washed three times with PBS and fixed with cold acetone-methanol (1:1, v/v) for 10 min. The cells were denaturated by HCl (1:5; Lachema, Czech Republic) and incubated with anti-specific-BrdU antibody (diluted 1:100 in PBS; clone Bu20a, DakoCytomation, Denmark) for 60 min in the dark. The cells were then washed three times in PBS (10 mM, pH 7.4) and incubated with goat anti-mouse fluorescein isothiocyanate (FITC)-labeled secondary antibody (Sigma, MO, USA) for 60 min in the dark. The cells were then washed three times in PBS and incubated with DAPI (50 μg/mL; Sigma, MO, USA) for 10 min in the dark. The coverslips with cells were washed in deionized water and mounted on glass slides, using the hydrophilic medium Mowiol (Calbiochem, Calif., USA) in glycerol-PBS (1:3, v/v) for fluorescence. Cells were visualized using microscopy and those incorporating BrdU (S phase cells) were counted in at least 25 fields and compared with the total number of all cells.
# [1] = tested on: MCF-7 (estrogen receptor-α-positive) breast cancer cell line; experiment: MTT cytotoxicity test, MCF-7; details: 24 h, mean ± SD, read-out: IC50 determined by MTT cytotoxicity test
# Description: 3-(4,5-Dimethylthiazol-2-yl)-2,5-diphenyltetrazolium bromide (MTT) was from Serva Electrophoresis (Heidelberg, Germany). Monoclonal mouse anti-bromodeoxyuridine (BrdU) intibody was obtained from DakoCytomation (Glostrup, Denmark). Calcein AM was obtained from PAA Laboratories GmbH (Pasching, Austria). […] All other cells were cultured in DMEM medium (Sigma, MO, USA). All used media were supplemented with 10% heat-inactivated fetal bovine serum, 2 mmol/L L-glutamine, 1% penicillin/streptomycin. The cell lines were maintained under standard cell culture conditions at 37° C. and 5% CO2 in a humid environment. Cells were subcultured twice or three times a week using the standard trypsinization procedure (Sigma, USA).
# Cell viability in this case was assessed by 3-(4,5-dimethylthiozol-2-yl)-2,5-diphenyltetrazolium bromide (MTT) to determine IC50 concentrations of studied agents as described previously. […] The cells (70% to 80% confluent) were treated with brassinosteroids for 6, 12 and 24 h in cell culture medium. Cells that were used as controls were incubated with the maximum used amount of steroid diluent DMSO only. […] The absorbance was read using an ELISA reader Labsystem Multiscan RC at 570 nm. The viability of treated cells was related to the viability of control cells that represented 100% viability. […]
# MDA-MB-468 cells = experiment: BrdU incorporation assay, MDA-MB-468
# Description: as §3
# MCF-7 cells = experiment: Cell cycle distribution by flow cytometry, MCF-7; details: IC50, 24 h; for Cell cycle distribution S: control 14%; for Apoptosis subG1 fraction: control 17%; for Cell cycle distribution G2/M: control 26%; for Cell cycle distribution G1: control 60%
# From the text: as §1, §2
# [2] = tested on: T-lymphoblastic leukaemia cell line CEM; experiment: Calcein AM cytotoxicity assay, CEM; details: CEM; six 4-fold dilutions, exposure 72 h (b71 says 96 h); mean ± SD; read-out: IC50 assessed by Calcein AM assay of surviving cells
# [3] = treated at IC50 for 6 h, control 44 ± 6.0
# [4] = treated at IC50 for 12 h, control 52 ± 7.6
# [5] = treated at IC50 for 24 h, control 59 ± 8.0
# [6] = treated at IC50 for 6 h, control 64 ± 1.5
# [7] = treated at IC50 for 12 h, control 58 ± 3.0
# [8] = treated at IC50 for 24 h, control 64 ± 5.6
SMILES,Cell cycle distribution S (DU-145 cells),Apoptosis subG1 fraction (DU-145 cells),Cell cycle distribution G2/M (DU-145 cells),Cell cycle distribution G1 (DU-145 cells),percentage of proliferating BrdU positive cells (LNCaP cells; [3]),percentage of proliferating BrdU positive cells (LNCaP cells; [4]),percentage of proliferating BrdU positive cells (LNCaP cells; [5]),IC50 [1],percentage of proliferating BrdU positive cells (MDA-MB-468 cells; [6]),percentage of proliferating BrdU positive cells (MDA-MB-468 cells; [7]),percentage of proliferating BrdU positive cells (MDA-MB-468 cells; [8]),Cell cycle distribution S (MCF-7 cells),Apoptosis subG1 fraction (MCF-7 cells),Cell cycle distribution G2/M (MCF-7 cells),Cell cycle distribution G1 (MCF-7 cells),IC50 [2]
"CC(C)[C@@H](C)[C@@H](O)[C@H](O)[C@@H](C)[C@H]1CC[C@H]2[C@@H]3COC(=O)[C@H]4C[C@H](O)[C@H](O)C[C@]4(C)[C@H]3CC[C@]12C [Brassinosteroid 6, 24-Epibrassinolide]",8%,24%,39%,53%,36 ± 5.5%,31 ± 2.0 %,29 ± 4.7 %,60 ± 1.8 µM,53 ± 4.4 %,55 ± 3.5%,43 ± 3.6 %,7%,13%,12%,81%,44 ± 2.2 µM
"CC[C@@H](C(C)C)[C@@H](O)[C@H](O)[C@@H](C)[C@H]1CC[C@H]2[C@@H]3CC(=O)[C@H]4C[C@H](O)[C@H](O)C[C@]4(C)[C@H]3CC[C@]12C [Brassinosteroid 9, 28-Homocastasterone]",8%,28%,46%,46%,25 ± 3.0 %,28 ± 4.6 %,27 ± 2.1 %,40 ± 1.5 µM,55 ± 5.0%,48 ± 4.6%,28 ± 4.6 %,11%,15%,9%,80%,13 µM
